Assays:
human recombinant PARG = target: T1, human recombinant PARG (Homo sapiens, UniProt Q86W56); assay: HTRF assay of PARG enzymatic activity with PARylated-PARP1 substrate; format: biochemical; settings: geometric mean, n=14
T1 construct: Human PARG (amino acids 389-976; Uniprot ID Q86W56-1); 6xHis (N, cleaved yes); TEV cleavage site (N, cleaved yes); made in house; host or cells: PARG: E. coli BL21 (DE3); PARP1 substrate: High Five insect cells (baculovirus)

[1] = test system: T026OV ovarian cancer patient-derived organoid; assay: 7-day organoid colony formation, ATP content (Cell Titer Glo 3D); format: cell-based, human; settings: T026OV PDO, 7 days
Text: The FU-97 (Cat #JCRB1074) human gastric cancer cell line and the Kuramochi (Cat #JCRB0098) and RMUG-S(Cat #IFO50320) human ovarian cancer cell lines were obtained from the National Institutes of Biomedical Innovation, Health and Nutrition's Japanese Collection of Research Bioresources (JCRB) (Ibaraki City, Osaka, Japan). The HCC1419 (Cat #CRL-2326) and HCC1428 (Cat #CRL-2327) human breast cancer cell lines and the NCI-H1650 (Cat #CRL-5883) and NCI-H1792 (Cat #CRL-5895) non-small cell lung cancer cell lines were obtained from ATCC (Manassas, Virginia, USA). The human gastric cancer cell lines GCIY (Cat #RCB0555) and SNU601 (Cat #CSC-C9686L) were obtained from the Riken Bioresource Research Center (Tsukuba, Ibaraki, Japan) and Creative Bioarray (Shirley, NY, USA), respectively. The T025OV ovarian cancer organoid model was developed from a patient-derived xenograft (PDX) model, which was developed from primary serous ovarian carcinoma cells obtained from Discovery Life Sciences (Huntsville, AL, USA, SN #350627149). T026OV organoids were developed from PDX cells obtained from The Jackson Laboratory (Bar Harbor, ME, USA, Cat #TM00335).
T025OV and T026OV PDOs were cultured in PDO complete media on a thin layer of growth-factor reduced Matrigel (Corning, Glendale, AZ, USA Cat #356231). […]
Compound 1 IC50 values for inhibition of organoid colony formation were determined by measuring ATP levels after 7 days of treatment utilizing Cell Titer Glo 3D reagent (Promega, Madison, WI, USA Cat #G9683). […] Luminescence values (RLU) were read-out using a Clariostar plate reader (BMG Labtech, Cary, NC). […]

5-HT2A receptor = target: T2, 5-HT2A receptor (Homo sapiens, UniProt P28223); assay: Follow-on study, agonist and antagonist IC50; format: binding; settings: antagonist
T2 construct: Eurofins (contract study)
T2 sequence (P28223 whole entry): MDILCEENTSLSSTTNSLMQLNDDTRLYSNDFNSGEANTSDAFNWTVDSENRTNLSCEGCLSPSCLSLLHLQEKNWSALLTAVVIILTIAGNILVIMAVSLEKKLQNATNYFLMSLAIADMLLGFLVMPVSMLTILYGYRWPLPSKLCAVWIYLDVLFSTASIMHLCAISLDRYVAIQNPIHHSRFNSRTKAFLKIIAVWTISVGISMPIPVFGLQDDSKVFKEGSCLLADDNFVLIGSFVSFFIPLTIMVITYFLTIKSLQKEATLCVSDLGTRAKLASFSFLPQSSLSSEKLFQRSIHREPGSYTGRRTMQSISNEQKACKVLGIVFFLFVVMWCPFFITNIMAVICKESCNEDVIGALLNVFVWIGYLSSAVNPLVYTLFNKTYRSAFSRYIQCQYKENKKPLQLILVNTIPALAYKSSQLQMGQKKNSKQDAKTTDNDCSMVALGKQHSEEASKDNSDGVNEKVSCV

HCC1806 xenograft = assay: HCC1806 triple negative breast cancer CDX, combination with camonsertib (RP-3500); set-up: species or system Athymic nude mice; settings: mouse, in vivo
Method: HCC1806 cells were cultured in RPMI medium containing 10% FBS (Thermo Fisher Scientific Cat #A31605-02) and penicillin+streptomycin (Thermo Fisher Scientific Cat #15070-063). The CDX model was established by subcutaneous inoculation of 1×10^6 HCC1806 cells/mouse into the right flank of Athymic nude mice (The Jackson Laboratory, Bar Harbor, ME, USA, Cat #002019). […] Compound 1 was administered to mice at 200 mg/kg to mice orally once daily from Monday through Friday throughout the treatment period and camonsertib (RP-3500) was administered at 15 mg/kg orally once daily from Monday through Wednesday throughout the treatment period (Table 11).
Tumor volumes and body weights were measured twice weekly. […] Statistical analysis of end-of-study tumor volumes relative to the vehicle group tumor volume was performed using Kruskal-Wallis Anova test with Dunn's multiple comparisons test.

T1 sequence (Q86W56 389-976): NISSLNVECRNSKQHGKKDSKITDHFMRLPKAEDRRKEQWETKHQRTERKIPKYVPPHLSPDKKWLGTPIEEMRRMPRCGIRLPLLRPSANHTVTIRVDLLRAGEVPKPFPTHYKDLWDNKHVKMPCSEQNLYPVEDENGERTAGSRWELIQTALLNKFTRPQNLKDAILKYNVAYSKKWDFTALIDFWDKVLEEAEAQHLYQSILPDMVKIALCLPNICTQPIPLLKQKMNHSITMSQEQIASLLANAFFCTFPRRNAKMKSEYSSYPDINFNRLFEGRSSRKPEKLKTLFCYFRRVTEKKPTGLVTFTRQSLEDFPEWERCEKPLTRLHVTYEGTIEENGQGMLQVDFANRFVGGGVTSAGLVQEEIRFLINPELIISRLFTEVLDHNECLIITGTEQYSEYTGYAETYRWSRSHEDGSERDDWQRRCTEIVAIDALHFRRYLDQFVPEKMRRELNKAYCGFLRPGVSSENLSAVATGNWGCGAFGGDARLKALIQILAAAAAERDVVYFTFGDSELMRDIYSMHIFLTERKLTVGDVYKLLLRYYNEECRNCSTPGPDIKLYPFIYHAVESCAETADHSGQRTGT

For `[2H]C([2H])(c1cnn(C)c1)N1C(=O)c2cc(S(=O)(=O)NC3(C)CC3)ccc2N2C1=NC[C@H]2C` [Compound 1, (R)-1-methyl-4-((1-methyl-1H-pyrazol-4-yl)methyl-d2)-N-(1-methylcyclopropyl)-5-oxo-1,2,4,5-tetrahydroimidazo[1,2-a]quinazoline-7-sulfonamide], the IC50 (human recombinant PARG) was 85 nM, the IC50 ([1]; Homo sapiens, 168 h, geometric mean, read-out: IC50 inhibition of ATP content) was 213 nM and the IC90 ([1]; Homo sapiens, 168 h, geometric mean, read-out: IC90 inhibition of ATP content) was 567 nM. For the same molecule, the “maximum reduction in cellular ATP content” value [1] was “approximately 50%”, the IC50 (5-HT2A receptor) was 21000 nM and the Kb (5-HT2A receptor; read-out: dissociation constant (KB)) was 4200 nM. For the same molecule, the “body weight change during the treatment period” value (HCC1806 xenograft) was “body weight gains”.
